From the NIST ThermoML archive (doi:10.1021/je060411g)

Assay: molar heat capacity at constant pressure
Conditions: 101.33 kPa

CCC(C)(C)O [2-methylbutan-2-ol]
Conditions	molar heat capacity at constant pressure [J/K/mol]
84.18 K, Crystal 3	59.96
84.41 K, Crystal 3	60.87
85.57 K, Crystal 3	65.73
86.62 K, Crystal 3	61.65
86.85 K, Crystal 3	61.55
87.94 K, Crystal 3	66.53
89.04 K, Crystal 3	62.98
89.26 K, Crystal 3	62.98
90.33 K, Crystal 3	68.13
91.86 K, Crystal 3	64.6
92.09 K, Crystal 3	64.56
93.17 K, Crystal 3	69.93
94.67 K, Crystal 3	66.27
94.91 K, Crystal 3	66.32
95.99 K, Crystal 3	71.8
97.49 K, Crystal 3	67.95
97.72 K, Crystal 3	68.07
98.82 K, Crystal 3	73.51
100.31 K, Crystal 3	70.24
100.54 K, Crystal 3	70.6
101.65 K, Crystal 3	75.44
103.12 K, Crystal 3	72.36
103.36 K, Crystal 3	72.54
104.48 K, Crystal 3	76.92
105.95 K, Crystal 3	73.89
106.18 K, Crystal 3	74.04
107.28 K, Crystal 3	78.03
108.74 K, Crystal 3	75.59
108.97 K, Crystal 3	75.81
110.03 K, Crystal 3	79.77
111.48 K, Crystal 3	77.47
111.7 K, Crystal 3	77.66
112.73 K, Crystal 3	81.52
114.17 K, Crystal 3	79.5
114.38 K, Crystal 3	79.61
115.38 K, Crystal 3	83.05
116.8 K, Crystal 3	81.46
117.02 K, Crystal 3	81.54
117.99 K, Crystal 3	84.42
119.4 K, Crystal 3	83.36
119.61 K, Crystal 3	83.37
120.55 K, Crystal 3	85.98
121.95 K, Crystal 3	85.58
122.15 K, Crystal 3	85.21
123.09 K, Crystal 3	87.29
124.47 K, Crystal 3	87.36
124.66 K, Crystal 3	87.39
125.59 K, Crystal 3	88.61
126.95 K, Crystal 3	89.35
127.13 K, Crystal 3	89.35
128.06 K, Crystal 3	90.2
129.39 K, Crystal 3	91.6
129.57 K, Crystal 3	91.64
130.5 K, Crystal 3	91.83
131.8 K, Crystal 3	96.05
131.98 K, Crystal 3	95.7
132.91 K, Crystal 3	94.22
134.19 K, Crystal 3	97.24
134.35 K, Crystal 3	97.17
135.29 K, Crystal 3	94.95
136.54 K, Crystal 3	98.99
136.7 K, Crystal 3	98.94
137.65 K, Crystal 3	96.49
138.86 K, Crystal 3	102.38
139.01 K, Crystal 3	102.19
139.98 K, Crystal 3	98.2
141.14 K, Crystal 3	106.32
141.29 K, Crystal 3	106.03
142.29 K, Crystal 3	99.86
143.38 K, Crystal 3	112.82
143.53 K, Crystal 3	110.46
144.58 K, Crystal 3	101.73
148.39 K, Crystal 2	89.39
148.47 K, Crystal 2	107.13
149.08 K, Crystal 2	105.46
150.5 K, Crystal 2	120.91
150.6 K, Crystal 2	120.49
151.3 K, Crystal 2	107.39
152.65 K, Crystal 2	120.48
152.74 K, Crystal 2	120.32
153.5 K, Crystal 2	109.42
154.78 K, Crystal 2	120.35
154.87 K, Crystal 2	120.25
155.66 K, Crystal 2	111.51
156.9 K, Crystal 2	120.17
156.98 K, Crystal 2	120.02
157.81 K, Crystal 2	113.29
159.02 K, Crystal 2	121.07
159.09 K, Crystal 2	120.89
159.95 K, Crystal 2	115.97
161.12 K, Crystal 2	121.73
161.19 K, Crystal 2	121.42
162.06 K, Crystal 2	118.39
163.23 K, Crystal 2	122.32
163.28 K, Crystal 2	121.93
164.16 K, Crystal 2	120.83
165.34 K, Crystal 2	123.02
165.36 K, Crystal 2	122.85
166.24 K, Crystal 2	123.44
167.44 K, Crystal 2	123.55
167.45 K, Crystal 2	123.69
168.29 K, Crystal 2	126.14
169.53 K, Crystal 2	124.34
169.57 K, Crystal 2	124.68
170.33 K, Crystal 2	128.89
171.63 K, Crystal 2	125.44
171.7 K, Crystal 2	125.8
172.35 K, Crystal 2	131.56
173.74 K, Crystal 2	126.82
173.85 K, Crystal 2	127.21
174.35 K, Crystal 2	134.03
175.89 K, Crystal 2	128.48
176.02 K, Crystal 2	128.7
176.33 K, Crystal 2	136.74
178.07 K, Crystal 2	130.33
178.22 K, Crystal 2	130.54
178.3 K, Crystal 2	139.33
180.24 K, Crystal 2	141.75
180.29 K, Crystal 2	131.97
180.44 K, Crystal 2	132.57
182.18 K, Crystal 2	143.44
182.53 K, Crystal 2	133.47
182.64 K, Crystal 2	134.58
184.1 K, Crystal 2	145.88
184.82 K, Crystal 2	137.28
186.01 K, Crystal 2	147.63
186.94 K, Crystal 2	141.12
187.9 K, Crystal 2	148.63
189 K, Crystal 2	143.98
189.78 K, Crystal 2	150.78
191 K, Crystal 2	146.05
191.66 K, Crystal 2	151.3
192.96 K, Crystal 2	149.37
193.52 K, Crystal 2	152.71
194.88 K, Crystal 2	150.75
195.38 K, Crystal 2	154.88
196.78 K, Crystal 2	151.94
197.23 K, Crystal 2	154.68
198.65 K, Crystal 2	154.12
199.07 K, Crystal 2	156.86
199.87 K, Crystal 2	155.64
200.5 K, Crystal 2	154.04
200.9 K, Crystal 2	157.7
201.17 K, Crystal 2	157.49
202.35 K, Crystal 2	156.44
202.62 K, Crystal 2	157.61
204.18 K, Crystal 2	158.51
204.44 K, Crystal 2	159.27
206 K, Crystal 2	158.34
206.25 K, Crystal 2	159.14
207.81 K, Crystal 2	159.84
208.06 K, Crystal 2	160.6
209.61 K, Crystal 2	159.89
209.85 K, Crystal 2	161.82
211.4 K, Crystal 2	158.72
211.64 K, Crystal 2	164.89
217.83 K, Crystal 1	141.33
218.04 K, Crystal 1	144.15
219.66 K, Crystal 1	143.15
219.86 K, Crystal 1	142.88
221.49 K, Crystal 1	143.51
221.68 K, Crystal 1	143.74
223.31 K, Crystal 1	144.13
223.5 K, Crystal 1	144.13
225.12 K, Crystal 1	144.75
225.31 K, Crystal 1	144.76
226.93 K, Crystal 1	145.48
227.12 K, Crystal 1	145.55
228.73 K, Crystal 1	146.48
228.92 K, Crystal 1	146.48
230.52 K, Crystal 1	147.54
230.71 K, Crystal 1	147.5
232.31 K, Crystal 1	148.37
232.49 K, Crystal 1	148.43
234.08 K, Crystal 1	149.45
234.27 K, Crystal 1	149.58
235.86 K, Crystal 1	150.05
236.04 K, Crystal 1	150.15
237.63 K, Crystal 1	151.12
237.81 K, Crystal 1	151.14
239.39 K, Crystal 1	152.5
239.57 K, Crystal 1	152.39
240.92 K, Crystal 1	153.28
241.15 K, Crystal 1	153.19
242.15 K, Crystal 1	153.94
242.9 K, Crystal 1	154.53
243.54 K, Crystal 1	154.92
244.65 K, Crystal 1	155.65
245.28 K, Crystal 1	156.32
246.39 K, Crystal 1	157.17
247.02 K, Crystal 1	157.69
248.12 K, Crystal 1	159.18
249.84 K, Crystal 1	160.99
251.56 K, Crystal 1	163.84
253.26 K, Crystal 1	168.27
